Patent US8815935B2, “Inhibitors of protein prenyltransferases” (The Regents of the University of California, priority 2008, dated 2014)

Tests used:
[1] = target: T1, FTase (Rattus norvegicus, UniProt Q02293+Q04631); experiment: In vitro FTase assay (K-Ras4B substrate, [3H]FPP); type: biochemical
T1 construct: purchased JENA BIOSCIENCE
Text: To further characterize the pilot library, inhibitors of protein farnesyltransferase were identified. This was accomplished by using K-Ras4B as a substrate protein, tritiated farnesylpyrophosphate ([^3H]FPP) and protein farnesyltransferase. See Finegold, A. A., Johnson, D. I., Farnsworth, C. C., Gelb, M. H., Judd, S. R., Glomset, J. A. and Tamanoi, F. (1991) Protein geranylgeranyltransferase of Saccharomyces cerevisiae is specific for Cys-Xaa-Xaa-Leu motif and requires the CDC43 gene product but not the DPR1 gene product. Proc. Natl. Acad. Sci. USA 88, 4448-4452. […] On the other hand, the structure of the compounds P1-F11, P2-B7 and P2-E9 resemble those of GGTIs. The FTI P1-F11 resembles the GGTI P1-F10, while the FTI P2-B7 resembles the GGTI P2-C10. The FTI P2-E9 is similar to the GGTI P2-G3. Similarity of some GGTI and FTI compounds may point to common structural features between the two closely related enzymes. As described before, FTase and GGTase I have similar three-dimensional structures and a shared alpha subunit. On the other hand, FTase specific inhibitors may recognize a region(s) that is different between the two enzymes.
Examples 2-8 illustrate assays of bioactivity. These methods are applicable to the compounds of the present invention having the particular linkers and scaffolds described herein, to determine their activity. […] Varying concentrations of the two compounds were added to each enzyme reaction. The FTase (protein farnesyltransferase) assay was carried out using K-Ras4B as a substrate protein, FTase (JENA Bioscience, San Diego, Calif.) and [3H]farnesyl pyrophosphate. Incubation was for 30 min at 37° C.
GGTase-I and FTase activities were determined by following the incorporation of radiolabeled isoprenoid [^3H]-geranylgeranyl or [^3H]-farnesyl into substrate proteins. FTase or GGTase-I (50 nM) were used to initiate reactions containing 0.4 μM of [^3H]-FPP or 0.5 μM of [^3H]-GGPP and 2 μM of MBP-tagged substrates (K-Ras4B for FTase; RhoA for GGTase-I) in 20 μl of buffer {50 mM Tris-HCl (pH 7.5), 10 mM MgCl2, […] and 5 mM DTT}. Inhibitors were added at the indicated concentrations. The final DMSO concentration was 2.5% for all samples.
Reactions were carried out for 10 min at 30° C. The reaction mixture was spotted onto a filter paper, treated with 10% trichloroacetic acid (TCA) followed by ethanol and acetone washing. The filter was counted using a scintillation counter. Kinetic assays in which the GGPP concentration was varied employed fixed concentrations of GGTase-I and RhoA, and reactions were carried out for 5 min. Similarly, fixed concentrations of GGTase-I and GGPP were used when the amount of RhoA was varied.

[2] = target: T2, RabGGTase (Rattus norvegicus, UniProt Q08602+Q08603); experiment: In vitro RabGGTase (GGTase-II) assay with REP-1; type: biochemical
T2 construct: purchased JENA BIOSCIENCE
T2 sequence (Q08602 1-567): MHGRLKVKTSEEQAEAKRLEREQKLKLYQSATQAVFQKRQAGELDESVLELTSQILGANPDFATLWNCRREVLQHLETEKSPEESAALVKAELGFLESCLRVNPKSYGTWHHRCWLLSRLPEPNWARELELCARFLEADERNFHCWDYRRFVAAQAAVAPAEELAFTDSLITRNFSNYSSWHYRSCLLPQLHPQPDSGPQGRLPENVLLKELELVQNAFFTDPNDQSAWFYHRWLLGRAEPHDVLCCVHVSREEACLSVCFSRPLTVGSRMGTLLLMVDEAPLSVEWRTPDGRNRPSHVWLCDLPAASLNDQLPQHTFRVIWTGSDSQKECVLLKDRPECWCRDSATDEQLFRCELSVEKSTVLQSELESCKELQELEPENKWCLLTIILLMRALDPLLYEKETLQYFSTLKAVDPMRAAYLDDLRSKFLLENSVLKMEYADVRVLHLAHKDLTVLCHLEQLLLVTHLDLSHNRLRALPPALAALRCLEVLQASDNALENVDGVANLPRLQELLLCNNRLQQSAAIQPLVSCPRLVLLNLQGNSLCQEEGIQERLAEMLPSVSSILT
T2 sequence (Q08603 1-331): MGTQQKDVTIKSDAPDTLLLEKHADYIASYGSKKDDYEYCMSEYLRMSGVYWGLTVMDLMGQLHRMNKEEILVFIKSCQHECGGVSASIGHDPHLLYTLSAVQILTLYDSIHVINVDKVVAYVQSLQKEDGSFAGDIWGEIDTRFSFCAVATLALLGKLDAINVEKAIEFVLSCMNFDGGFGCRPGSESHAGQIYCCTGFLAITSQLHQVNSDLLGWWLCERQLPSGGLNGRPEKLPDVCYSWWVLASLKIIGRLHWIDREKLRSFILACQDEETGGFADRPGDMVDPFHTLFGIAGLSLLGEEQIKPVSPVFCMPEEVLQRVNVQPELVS
Method: The GGTase-I assay was carried out using RhoA as a substrate protein, GGTase-I (JENA Bioscience) and [3H]geranylgeranyl pyrophosphate. Incubation was for 30 min at 37° C. GGTase-II (or RabGGTase) assay was carried out using YPTI as a substrate protein, GGTase-II (Calbiochem, San Diego, Calif.) plus REP1 (Calbiochem) and [3H]geranylgeranyl pyrophosphate. Incubation was for 30 min at 37° C. FIGS. 20D-20F show the three dimensional structure of GGTase I (D), FTsse (E) and GGTase II (F) which can be obtained from X-ray diffraction studies of protein crystals.
For RabGGTase assays, the reaction contained the following components in 20 μl; 0.625 μl of [^3H]-GGPP (0.7 μM), 25 nM RabGGTase, 0.6 μM REP-1, 0.6 μM purified Rab7 or Ypt1 protein, 40 mM HEPES (pH 7.5), 150 mM NaCl, 5 mM DTT, 3 mM MgCl2 and 0.3% CHAPS. Reactions were carried out for 20 min at 37° C. and the products were analyzed as described above for the GGTase-I reaction. Graphing and Michaelis-Menten analysis were performed using Prism version5 (GraphPad, San Diego Calif.).

[3] = tested on: K562 cells; experiment: K562 cell growth inhibition; type: cell-based, human; conditions: 72 hours
Procedure, shortened: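 Human erythroleukemia K562 cells exposed to compound for 72 hours. Cell number measured with CCK-8 and viability expressed relative to the DMSO control.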

[4] = concentration increased to 100,000 nM

Compound	inhibition of FTase activity (FIG. 16) ([1]; P3-D9, P3-E5: concentration increased to 100 (unit not given))	inhibition of FTase activity ([1]; concentration increased to 50,000 nM)	inhibition of RabGGTase ([2]; even at 50,000 nM)	inhibition of proliferation of K562 cells ([3]; FIG. 23)	inhibition of FTase activity [1, 4]	inhibition of RabGGTase activity [2, 4]	IC50 ([3]; Homo sapiens, K562, FIG. 36A, read-out: IC50, inhibition of proliferation of K562 cells) [nM]
Cc1ccccc1S(=O)(=O)N1[C@@H](c2cccc(Cl)c2)C(C(=O)O)=CC[C@H]1c1ccc(Cl)cc1 [P3-E5]	no inhibition of FTase activity	no significant inhibition	little inhibition	inhibit the growth of the K562 cells			
Cc1ccccc1S(=O)(=O)N1C(c2ccc(Cl)cc2)C(C(=O)NC(Cc2ccccc2)C(N)=O)=CC1C(C)(C)C (stereo not shown) [P61-A6]					No significant inhibition	No significant inhibition	2200
